Laboratory results taken from patent US20230062911A1, “COMPOSITIONS AND METHODS FOR TREATING, PREVENTING, AND/OR AMELIORATING CHEMOTHERAPY-INDUCED PREMATURE OVARIAN FAILURE (POF)” (Rutgers, The State University of New Jersey, priority 2021, published 2023).
Entries after “also recorded” stand apart in the source; their conditions may differ.

How the values were obtained:
ovarian follicles = test: Follicle counting 6 weeks after treatment of 21-day-old mice; assay type: in vivo, CD-1 female mice
Description: Ovarian functions were examined at 6-weeks after treatment in order to evaluate the long-term effect of pharmacological JNK inhibition on female ovarian reserve and other ovary reproductive outcomes.

primordial follicles = test: DOX-induced primordial follicle loss in 5-day-old mice; assay type: in vivo, CD-1 female mice; conditions: co-treatment SP600125 50 mg/kg with DOX 10 mg/kg i.p.
Description: (§1) Next, 5-day-old CD-1 female mice were intraperitoneally injected with 10 mg/kg DOX and 50 mg/kg SP600125, a specific JNK inhibitor.

TAp63α = test: Phosphorylation of TAp63α in ovaries, immunostaining and western blot; assay type: in vivo, CD-1 female mice
Description: (§2) FIG. 2B provides a western blot showing expression of γH2AX and pTAp63α at 3 h and 6 h. The mobility shift of TAp63α indicated phosphorylation (i.e., p-TAp63α), which further indicated cell death initiation through apoptosis.
TAp63a functions to respond to DNA damage that results in its phosphorylation and subsequent oocyte apoptosis initiation in the primordial follicles.
as §1

CD-1 female mice = test: Ovarian cyclicity by vaginal smear in 21-day-old treated mice; assay type: in vivo; conditions: 21-day-old mice, last 14 days of 6 weeks post treatment
Description: The transition of various estrous cycle stages of three representative mice (a total of 6-8 mice in each group) are shown for each treatment group, including proestrus, estrus, metestrus, and diestrus.
Ovarian cyclicity was next examined by the method of vaginal smear in the last 14 days of the 6-week post DOX / SP600125 treatment.

Bax, Puma, Noxa = test: qRT-PCR of apoptosis mediators in whole neonatal ovaries; assay type: in vivo, CD-1 female mice; conditions: co-treatment with DOX
Description: as §1

JNK = test: Phosphorylation of JNK in oocytes of primordial follicles, western blot and immunostaining; assay type: in vivo, CD-1 female mice; conditions: for activation of JNK in the oocytes of primordial follicles: general statement, no dose given
γ-H2AX = test: Ovarian expression of γ-H2AX (DNA damage marker) after DOX, immunostaining and western blot; assay type: in vivo
Description: as §2
Expression of γ-H2AX, a well-characterized biomarker of DNA double strand breaks (DDSBs) as well as the major mechanism of DOX’s cytotoxicity on tumorous cells, was detected with administration of DOX.

[1] = system: JNK (c-Jun N-terminal kinase) signaling pathway; test: RNA sequencing / Gene Ontology analysis of ovaries after DOX; assay type: in vivo, CD-1 female mice; conditions: 5-day-old mice, DOX 10 mg/kg i.p., ovaries at 6 hours
Description: Thus, the molecular mechanisms of DOX-induced primordial follicle oocyte apoptosis were investigated as described herein. Fiveday-old CD-1 female mice were intraperitoneally injected with vehicle or 10 mg/kg DOX and ovaries were harvested at 6 hours for RNA sequencing.

Row | Compound | numbers of all staged follicles (ovarian follicles; SP600125 alone) | effect on DOX-induced reduction of all stages of follicles (ovarian follicles; co-treatment with DOX) | effect on DOX-induced primordial follicle loss (primordial follicles) | effect on DOX-induced hyper-phosphorylation of TAp63α (TAp63α; 5-day-old mice, SP600125 50 mg/kg i.p. with DOX 10 mg/kg i.p., western blot) | effect on cisplatin-induced phosphorylation of TAp63α (TAp63α; 5-day-old mouse ovaries, SP600125 50 mg/kg i.p. with cisplatin 20 mg/kg i.p.) | ovarian cyclicity (estrous cycle stages) (CD-1 female mice; DOX / SP600125 co-treatment) | ovarian cyclicity (estrous cycle stages) (CD-1 female mice; SP600125 alone) | effect on DOX-induced transcriptional induction of Bax (Bax, Puma, Noxa) | effect on DOX-induced transcriptional induction of Noxa (Bax, Puma, Noxa) | effect on DOX-induced transcriptional induction of Puma (Bax, Puma, Noxa) | activation of JNK in the oocytes of primordial follicles (JNK) | numbers of all stages of ovarian follicles (primordial, primary, secondary, antral) (ovarian follicles; DOX alone) | phosphorylation of JNK in the oocytes of primordial follicles (JNK; 5-day-old mice, DOX 10 mg/kg i.p., 6 h) | expression of γ-H2AX in ovarian epithelial cells and oocytes (γ-H2AX; DOX 10 mg/kg i.p., 6 h) | time at which increased γ-H2AX expression peaked (γ-H2AX; after DOX treatment, western blot) [h] | JNK signaling pathway by RNA sequencing Gene Ontology analysis [1] | phosphorylation of TAp63a in ovaries (TAp63α; 6 h after DOX treatment, western blot) | expression of phospho-p63 in oocytes of primordial follicles (TAp63α; 6 h post DOX treatment, immunostaining) | ovarian cyclicity (estrous cycle stages) (CD-1 female mice; DOX alone)
1 | O=C1c2ccccc2-c2n[nH]c3cccc1c23 [SP600125, dibenzo[cd,g]indazol-6(2H)-one] | did not affect | effectively prevented the reduction | significantly ameliorated; also recorded: prevented DOX-induced primordial follicle loss | effectively prevented; also recorded: blocked the phosphorylation | blocked the phosphorylation | comparable ovarian cyclicity to the control group | comparable ovarian cyclicity to the control group | prevented the transcriptional induction | prevented the transcriptional induction | prevented the transcriptional induction |  |  |  |  |  |  |  |  | 
2 | N.N.[Cl][Pt][Cl] [cisplatin, cis-diammineplatinum (II) dichloride] |  |  |  |  |  |  |  |  |  |  | selectively activate |  |  |  |  |  |  |  | 
3 | COc1cccc2c1C(=O)c1c(O)c3c(c(O)c1C2=O)C[C@@](O)(C(=O)CO)C[C@@H]3O[C@H]1C[C@H](N)[C@@H](O)[C@H](C)O1 [DOX, (8S,10S)-10-(((2R,4S,5R,6S)-4-amino-5-hydroxy-6-methyltetrahydro-2H-pyran-2-yl)oxy)-6,8,11-trihydroxy-8-(2-hydroxyacetyl)-1-methoxy-7,8,9,10-tetrahydrotetracene-5,12-dione] |  |  |  |  |  |  |  |  |  |  | selectively activate | remarkably reduced | selectively increased; also recorded: selective hyper-phosphorylation | significantly increased | 6 | significantly changed; also recorded: activated | hyper-phosphorylated | significantly induced | interfered with mouse ovarian cyclicity
